Series [1] in a line: Dog plasma protein binding (PPB). It is filed as in vitro ADME. To be noted: dog, serum, pH 7.4. In short, it runs like this: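 Dog serum replaced human serum, with the protocol and analysis otherwise the same as for human plasma protein binding. Values are reported as fraction unbound (Fu,plasma) expressed as a percentage.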
In a further series the test system is male ferrets. It is filed as in vivo. The procedure:
1. Effect of subcutaneously administered GIP receptor agonist peptide in morphine-induced acute emetic model.
To evaluate the antiemetic effect, the GIP receptor agonist peptides other than natural human GIP are subcutaneously administered into male ferrets 24 hrs before morphine administration. Up to 60 minutes after morphine administration, the condition of the ferrets is monitored to record the frequencies and time points of abdominal contraction motions, vomiting behaviors, licking with the tongue, and fidgety behavior occurring. GIP receptor agonist peptide compounds of the present disclosure dosed at 0.3-10 nmol/kg attenuated the morphine (0.6 mg/kg, s.c.)-induced emesis in the ferrets.
GIP receptor agonist peptides are dissolved with a vehicle (0.09 w/v % tween 80/10% DMSO/saline), respectively, to prepare test solutions. […] of the test solutions and the vehicle are subcutaneously administered to ferrets (4 in each group), respectively. At the time of each of 4 or 24 hours after administration, 0.6 mg/kg of morphine is subcutaneously administered.

The next series has as its system female beagle dogs. Description: PYY-1119-induced vomiting in dogs. Format: in vivo. To be noted: 3 nmol/kg s.c., 72 hours post-dose (lower line). The procedure: The GIPR agonist peptide compounds of the present disclosure or vehicle (0.09% [w/v] Tween 80/10% DMSO/PBS) were administered subcutaneously (sc) at 3-10 nmol/kg to female beagle dogs (10 months old), followed by sc injections with Y2R agonist ((4-imidazolecarbonyl-Ser-D-Hyp-Iva-Pya(4)-Cha-Leu(Me)-Asn-Lys-Aib-Thr-Arg-Gln-Arg-Cha-NH2), […]), […]) at 1 hour or specified hours in the table postdose. Emetic episodes were counted for 2 hours after administration (by blinded analysis).

Another series is described as follows: physchem. In short, it runs like this: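 3 mg of peptide treated with 100 μL portions of 200 mM phosphate buffer pH 7.4, sonicating/vortexing up to 1 min, with further buffer added until fully dissolved. Solubility then quantified by HPLC.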
The next series deals with C57BL/6J mice. Description: Oral glucose tolerance test (OGTT). Conditions: 3 nmol/kg s.c., 24 hours before glucose loading. Format: in vivo. A digest of the protocol: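 Peptide or vehicle given s.c. at 0.1, 0.3, 3 or 10 nmol/kg (peptide-dependent), 24 h before oral 50% dextrose at 5 ml/kg unless stated otherwise. Blood glucose read at 0, 15, 30 and 60 min. % inhibition = (1−(AUC cpd−AUC naïve)/(AUC veh−AUC naïve))×100.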

The nature of series [2]: Human plasma protein binding (PPB). Format: in vitro ADME. To be noted: human, plasma. A digest of the protocol:
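Peptides spiked at 1000 nmol/L into pooled human K2-EDTA plasma adjusted to pH 7.4, incubated 30 min at 37 °C, then ultracentrifuged at ~450,000 g, 4 °C for 3 h. Fu derived from LC-MS/MS (MRM) peak area ratios, supernatant versus plasma.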

The text below walks through data of US20230143604A1, “QW DOSING OF GIP RECEPTOR AGONIST PEPTIDE COMPOUNDS AND USES THEREOF” (TAKEDA PHARMACEUTICAL COMPANY LIMITED, priority 2020, published 2023).

For orientation: fraction unbound means free concentration divided by total concentration. A lower fraction unbound goes with extensive binding. What is called solubility is how much of the substance goes into solution per volume. Low readings indicate little dissolved substance, high ones much dissolved substance.

Each structure is given as a SMILES string. Values joined by “and” are separate entries in the source; they are usually repeats but may differ in a detail not shown here. Identical values can stand only once. Some results are limits rather than exact numbers.

The compound `CC[C@H](C)[C@H](NC(=O)[C@H](CO)NC(=O)[C@H](Cc1ccc(O)cc1)NC(=O)[C@H](CC(=O)O)NC(=O)[C@H](CO)NC(=O)[C@@H](NC(=O)[C@H](Cc1ccccc1)NC(=O)[C@@H](NC(=O)CNC(=O)[C@H](CCC(=O)O)NC(=O)C(C)(C)NC(=O)[C@H](Cc1ccc(O)cc1)NC)[C@@H](C)O)[C@@H](C)CC)C(=O)N[C@@H](C)C(=O)N[C@@H](CC(C)C)C(=O)N[C@@H](CC(=O)O)C(=O)N[C@@H](CCCNC(=N)N)C(=O)N[C@@H](CCCCNC(=O)CNC(=O)CNC(=O)CNC(=O)CNC(=O)CNC(=O)CCCCCCCCCCCCCCCCC(=O)O)C(=O)N[C@@H](C)C(=O)N[C@@H](CCC(N)=O)C(=O)NC(C)(C)C(=O)N[C@@H](CC(=O)O)C(=O)N[C@@H](Cc1ccccc1)C(=O)N[C@H](C(=O)N[C@@H](CC(N)=O)C(=O)N[C@@H](Cc1c[nH]c2ccccc12)C(=O)N[C@@H](CC(C)C)C(=O)N[C@@H](CC(C)C)C(=O)N[C@@H](C)C(=O)N[C@@H](CCC(N)=O)C(=O)N[C@@H](CO)C(=O)N1CCC[C@H]1C(=O)N[C@@H](CO)C(=O)N[C@@H](CO)C(=O)NCC(=O)N[C@@H](C)C(=O)N1CCC[C@H]1C(=O)N1CCC[C@H]1C(=O)N1CCC[C@H]1C(=O)N[C@@H](CO)C(N)=O)C(C)C` [Compound 50, Me-Y-Aib-E-G-T-F-I-S-D-Y-S-I-A-L-D-R-Km-A-Q-Aib-D-F-V-N-W-L-L-A-Q-S-P-S-S-G-A-P-P-P-S-NH2] displayed a fraction unbound at 30 min, 1000 nmol/L in series [1] of 0.0006. The “% inhibition of emetic events at doses (nmol/kg) and timepoints shown in ferret morphine model” value in the series on male ferrets (4 hrs, 0.3 nmol/kg s.c.) was 4 hrs: 27% (0.3 nmol/kg);. Besides, the “effect on morphine-induced emesis in ferrets (in words)” value with male ferrets (morphine 0.6 mg/kg s.c., peptides dosed at 0.3-10 nmol/kg s.c.) was “effective in completely inhibiting the frequency of emesis”. Moreover, in the series with female beagle dogs, the “Inhibition (%) of PYY-1119-induced emetic event” value is 97% (3 nmol/kg). Further, the solubility was at least 15 mg/mL in “physchem” (pH 7.4) and at least 60 mg/mL in “physchem” (pH 7.4, aqueous buffer). Besides, in the series with C57BL/6J mice, the “Oral Glucose Tolerance Test Percent decrease in blood glucose AUC (%) over 60 mins” value was 89% and 69%. For the same compound, the “free unbound peptide in human plasma (in words)” value in series [2] is reported as “optimum free unbound peptide”.
